From patent publication US11964935B2, “Gingerol derivative having inhibitory activity against biofilm formation and pharmaceutical composition comprising same as effective ingredient for preventing or treating biofilm-caused infection symptom” (Korea University Research and Business Foundation, Sejong …, priority 2017, dated 2024)
“Also recorded” adds a separate entry of the source.

Columns and labels:
LasR = molecular target: T1, LasR (Pseudomonas aeruginosa, UniProt P25084); experiment: LasR reporter gene assay (E. coli reporter strain, luminescence, competition with OdDHL); format: cell-based; conditions: compound 1 μM or 10 μM in the presence of 1 μM OdDHL (compound 1a)
T1 construct: expressed in transfected cells; host or cells: E. coli DH5α (printed DHSα) co-transformed with pJN105L and pSC11
T1 sequence (P25084 whole entry): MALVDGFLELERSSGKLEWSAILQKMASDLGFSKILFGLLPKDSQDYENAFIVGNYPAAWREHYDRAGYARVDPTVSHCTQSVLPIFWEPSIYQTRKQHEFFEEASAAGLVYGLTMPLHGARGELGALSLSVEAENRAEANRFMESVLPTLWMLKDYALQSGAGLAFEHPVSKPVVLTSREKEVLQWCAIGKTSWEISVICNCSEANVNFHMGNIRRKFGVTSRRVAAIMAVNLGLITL
Method: This assay was conducted by modifying a previously reported method. E. coli DHSα co-transformed with two plasmids, pJN105L (LasR expression plasmid) and pSC11 (lasI::lacZ fusion plasmid), was used as a bioassay reporter strain. Overnight culture of the reporter strain with 10 μg/mL gentamicin and 50 μg/mL ampicillin was diluted in the Luria-Bertani (LB) medium (1:100). Then, the reporter strain (optical density at 595 nm [OD595] was 0.3) mixed with either a positive control or the synthesized compound was incubated with OdDHL (Sigma-Aldrich, St. Louis, MO., USA) and 0.4% arabinose (Sigma-Aldrich). After incubation at 37° C. for 1.5 h, OD595 was measured on a VICTOR ×5 multimode plate reader (PerkinElmer, Waltham, Mass., USA). The β-galactosidase activity was determined using a Tropix plus kit (Applied Biosystems, USA), and luminescence was measured on the VICTOR ×5 multimode plate reader. RLU ratio was quantified by dividing luminescence with OD595.
LasR-binding affinity of the synthesized gingerols (compounds 4-10) with various alkyl chain lengths was determined by measuring luminescence of an E. coli reporter strain. The reporter strain carried two plasmids, pJN105L (LasR expression plasmid) (Lee, J. H.; Lequette, Y.; Greenberg, E. P. Activity of purified QscR, a Pseudomonas aeruginosa orphan quorum-sensing transcription factor. Mol. Microbiol. 2006, 59, 602609.) and pSC11 (las1::lacZ fusion plasmid) (Chugani, S. A.; Whiteley, M.; Lee, K. M.; D'Argenio, D.; Manoil, C.; Greenberg, E. P. QscR, a modulator of quorum-sensing signal synthesis and virulence in Pseudomonas aeruginosa. Proc. Natl. Acad. Sci. U.S.A. 2001, 98, 27522757.), which enabled assay of competitive binding of OdDHL with each gingerol derivative 4-10. Antagonistic activities of the synthesized compounds at 1 μM or 10 μM were determined by measuring luminescence in the presence of 1 μM OdDHL (compound 1a) and presented as relative luminescence unit (RLU) ratio. Three compounds (compounds 1b, 1c, and 1d) served as positive controls. […] Just as the LasR inhibition, inhibition of biofilm formation also strengthened as the carbon chain was extended at 10 μM ((B) of FIG. 3). However, inhibition of biofilm formation decreased with 9-gingerol (compound 9) and 10-gingerol (compound 10) at 100 μM ((C) of FIG. 3) because of increased bacterial growth inhibition. […] This effect may be due to the fact that compounds 9 and 10 act as a surfactant, which inhibits bacterial growth. Agonistic activities of compounds 4-10 in an E. coli reporter assay system in the absence of OdDHL were next examined.

P. aeruginosa PA14 [1] = experiment: Dynamic biofilm formation assay (drip-flow reactor, CLSM); format: cell-based, Pseudomonas aeruginosa; conditions: 48 h drip-flow reactor
Method: Glass slides were dipped into a Petri dish containing 2 mL of a P. aeruginosa PA14 suspension (OD595=1.0) and 18 mL of the AB medium, followed by incubation at 37° C. for 24 h to let the cells adhere to the slides. The slides were then inserted into a drip-flow reactor (DFR-110, BioSurface, Mont., USA). The AB medium with either a positive control or the synthesized compound (0-10 μM) was fed into the reactor continuously via a peristaltic pump (Masterflex C/L tubing pumps, Cole-Parmer, IL, USA) at 0.3 mL/min After operation of the reactor at 37° C. for 48 h, the cells on the slides were washed two times with PBS. The biofilm cells were stained with fluorescein isothiocyanate-labeled type IV ConA (Sigma-Aldrich) and SYPRO Ruby (Ruby, Invitrogen, Carlsbad, CA, USA) for 15 min, respectively. CLSM images were captured via a 20× objective lens (W N-Achroplan 20×/0.5 W [DIC] M27) with green fluorescence (ConA, excitation wavelength of 490 nm, emission wavelength of 525 nm) and red fluorescence (Ruby, excitation wavelength of 470 nm, emission wavelength of 618 nm) and were analyzed in the Zen 2011 software (Carl Zeiss, Jena, Germany). For quantification, biofilm volume (μm^3/μm^2) and average thickness (μm) were measured by means of Comstat2 in ImageJ.
A dynamic biofilm formation assay of compounds 41 and 42 was performed in a drip-flow reactor. Compound 1c served as a positive control, and DMSO served as a negative control. After 48 h drip-flow reactor operation, the biofilm was stained with Ruby and concanavalin A (ConA). Ruby (red) is a reagent for staining protein, and ConA (green) is for carbohydrate of biofilm. As shown in (A) of FIG. 8, the biofilm in the presence of DMSO formed with typical mushroom-like morphology. […] Biofilm volume and thickness with compound 41 were the lowest among the three groups (Table 1).

P. aeruginosa PA14 [2] = experiment: Static biofilm formation assay; format: cell-based, Pseudomonas aeruginosa; conditions: 10 μM, 24 h, static
Method: Overnight culture of P. aeruginosa PA14 (OD595=1.0) was diluted (1:20) with the AB medium (300 mM NaCl, 50 mM MgSO4, 0.2% vitamin-free casamino acids, 10 mM potassium phosphate, 1 mM L-arginine, and 1% glucose, pH 7.5) (1:20) containing with either positive controls or synthesized compounds (0-100 μM). The dilutions were aliquoted into borosilicate bottles, and the bottles were incubated at 37° C. for 24 h without agitation. After that, OD595 of the cell suspension was measured on the VICTOR ×5 multimode plate reader. The biofilm cells attached to the bottle were washed two times with phosphate buffered saline (PBS; 137 mM NaCl, 2.7 mM KCl, 10 mM Na2HPO4, and 2 mM KH2PO4, pH 7.2) and stained with 0.1% crystal violet for […] Next, the stained biofilm cells were eluted with 100% ethyl alcohol, and OD540 was measured on the VICTOR ×5 multimode plate reader. The biofilm formation was quantified by dividing OD540 with OD595.

| SMILES | LasR-antagonistic activity / LasR-binding affinity (RLU ratio), in words (LasR) | Inhibition of biofilm formation, in words (P. aeruginosa PA14 [2]) | also measured |
| --- | --- | --- | --- |
| CCCCCC(O)CC(=O)CCc1ccc(O)c(OC)c1 (racemic) [Compound 6, 5-Hydroxy-1-(4-hydroxy-3-methoxyphenyl)decan-3-one] | slightly more potent | – | – |
| CCCCCCCC(O)CC(=O)CCc1ccc(O)c(OC)c1 (racemic) [Compound 8, 5-Hydroxy-1-(4-hydroxy-3-methoxyphenyl)dodecan-3-one] | slightly more potent | – | – |
| CCCCCCCC(O)CC(=O)/C=C/c1ccc(O)c(OC)c1 (racemic) [Compound 21b, (E)-5-Hydroxy-1-(4-hydroxy-3-methoxyphenyl)dodec-1-en-3-one] | slightly stronger LasR affinity; also recorded: more potent than compound 1c | – | – |
| CCCCCCCC(O)CC(=O)CCc1ccc(O)c(OC)c1 [Compound 1c, (S)-8-gingerol, reference compound] | – | – | Biofilm thickness (P. aeruginosa PA14 [1]; 10 μM compound, CLSM, Comstat2): 17.0 ± 0.4 μm; Biofilm volume (P. aeruginosa PA14 [1]; 10 μM compound, CLSM, Comstat2): 17.0 ± 0.4 μm^3/μm^2; Biofilm formation in CLSM images, in words (P. aeruginosa PA14 [1]; 10 μM, compared with DMSO or compound 1c): relatively thin and sparse |
| CCCCCC(O)CC(=O)CCc1ccccc1 (centres unmarked) [Compound 15a, 5-Hydroxy-1-phenyldecan-3-one] | significantly decreased the LasR-antagonistic activity | – | – |
| CCCCCCCC(O)CC(=O)CCc1ccccc1 (centres unmarked) [Compound 15b, 5-Hydroxy-1-phenyldodecan-3-one] | relatively weaker than those of the other compounds | – | – |
| CCCCCC(O)CC(=O)CCc1ccc(F)c(OC)c1 (centres unmarked) [Compound 16a, 1-(4-Fluoro-3-methoxyphenyl)-5-hydroxydecan-3-one] | preserved the LasR-inhibitory activity | the most potent in the series | – |
| CCCCCCCC(O)CC(=O)CCc1ccc(F)c(OC)c1 (centres unmarked) [Compound 16b, 1-(4-Fluoro-3-methoxyphenyl)-5-hydroxydodecan-3-one] | – | the most potent in the series; also recorded: stronger inhibition of biofilm formation than the known anti-biofilm agent (S)-6-gingerol | – |
| CCCCCC(O)CC(=O)CCc1ccc(F)cc1 (centres unmarked) [Compound 17a, 1-(4-Fluorophenyl)-5-hydroxydecan-3-one] | preserved the LasR-inhibitory activity | the most potent in the series | – |
| CCCCCCCC(O)CC(=O)CCc1ccc(F)cc1 (centres unmarked) [Compound 17b, 1-(4-Fluorophenyl)-5-hydroxydodecan-3-one] | the most potent among the synthesized compounds | the most potent in the series; also recorded: stronger inhibition of biofilm formation than the known anti-biofilm agent (S)-6-gingerol | – |
| CCCCCC(O)CC(=O)CCc1ccc(O)cc1 (centres unmarked) [Compound 18a, 5-Hydroxy-1-(4-hydroxyphenyl)decan-3-one] | increased the LasR-antagonistic activity | the most potent in the series | – |
| CCCCCCCC(O)CC(=O)CCc1ccc(O)cc1 (centres unmarked) [Compound 18b, 5-Hydroxy-1-(4-hydroxyphenyl)dodecan-3-one] | the most potent among the synthesized compounds | the most potent in the series; also recorded: stronger inhibition of biofilm formation than the known anti-biofilm agent (S)-6-gingerol | – |
| CCCCCC(O)CC(=O)CCc1cccc(OC)c1 (centres unmarked) [Compound 20a, 5-Hydroxy-1-(3-methoxyphenyl)decan-3-one] | decreased the LasR-antagonistic activity | – | – |
| CCCCCCCC(O)CC(=O)CCc1cccc(OC)c1 (centres unmarked) [Compound 20b, 5-Hydroxy-1-(3-methoxyphenyl)dodecan-3-one] | relatively weaker than those of the other compounds | – | – |
| CCCCCC(O)CC(=O)/C=C/c1ccc(O)c(OC)c1 (centres unmarked) [Compound 21a, (E)-5-Hydroxy-1-(4-hydroxy-3-methoxyphenyl)dec-1-en-3-one] | slightly stronger LasR affinity | – | – |
| CCCCCCCC(=O)/C=C/c1ccc(O)c(OC)c1 [Compound 23a, (E)-1-(4-Hydroxy-3-methoxyphenyl)dec-1-en-3-one] | significantly weaker LasR-binding affinity | less inhibition of biofilm formation | – |
| CCCCCCCCCC(=O)/C=C/c1ccc(O)c(OC)c1 [Compound 23b, (E)-1-(4-Hydroxy-3-methoxyphenyl)dodec-1-en-3-one] | significantly weaker LasR-binding affinity | less inhibition of biofilm formation | – |
| CCCCCCCC(=O)CCc1ccc(O)c(OC)c1 [Compound 24a, 1-(4-Hydroxy-3-methoxyphenyl)decan-3-one] | significantly weaker LasR-binding affinity | less inhibition of biofilm formation | – |
| CCCCCCCCCC(=O)CCc1ccc(O)c(OC)c1 [Compound 24b, 1-(4-Hydroxy-3-methoxyphenyl)dodecan-3-one] | significantly weaker LasR-binding affinity | less inhibition of biofilm formation | – |
| CCCCCCC[C@@H](O)CC(=O)CCc1ccc(O)c(OC)c1 [Compound 29, (R)-5-Hydroxy-1-(4-hydroxy-3-methoxyphenyl)dodecan-3-one] | intermediate LasR-affinity between compound 8 and compound 42 | – | – |
| CCCCCCCC(O)CC(=O)CCc1ccc(O)c(OC)c1 [Compound 42S, (S)-8-gingerol] | almost the same as that of commercial (S)-8-gingerol | – | – |
